Data as given in ChEMBL document CHEMBL3621186, “Design, synthesis and antitumor activity of non-camptothecin topoisomerase I inhibitors” (Bioorg Med Chem Lett, 2015).
Active and inactive are the calls of the source. The calls are words filed in the database; no cut-off is given here.

Columns and labels:
HCT-116 [1] = assay: Cytotoxicity against human HCT116 cells assessed as inhibition of cell proliferation at 10 uM by MTT assay relative to control; assay type: functional
PC-3 [2] = assay: Cytotoxicity against human PC3 cells assessed as inhibition of cell proliferation at 10 uM by MTT assay relative to control; assay type: functional
U-87 MG [3] = assay: Cytotoxicity against human U87MG cells assessed as inhibition of cell proliferation at 10 uM by MTT assay relative to control; assay type: functional, U-87MG ATCC
HepG2 [4] = assay: Cytotoxicity against human HepG2 cells assessed as inhibition of cell proliferation at 10 uM by MTT assay relative to control; assay type: functional
SK-OV-3 [5] = assay: Cytotoxicity against human SKOV3 cells assessed as inhibition of cell proliferation at 10 uM by MTT assay relative to control; assay type: functional
HCT-116 [6] = assay: Cytotoxicity against human HCT116 cells assessed as inhibition of cell proliferation by MTT assay; assay type: functional, cell-based
PC-3 [7] = assay: Cytotoxicity against human PC3 cells assessed as inhibition of cell proliferation by MTT assay; assay type: functional, cell-based
HepG2 [8] = assay: Cytotoxicity against human HepG2 cells assessed as inhibition of cell proliferation by MTT assay; assay type: functional, cell-based
U-87 MG [9] = assay: Cytotoxicity against human U87MG cells assessed as inhibition of cell proliferation by MTT assay; assay type: functional, cell-based, U-87MG ATCC
SK-OV-3 [10] = assay: Cytotoxicity against human SKOV3 cells assessed as inhibition of cell proliferation by MTT assay; assay type: functional, cell-based
[11] = target: T1, DNA topoisomerase 1 (Homo sapiens) (UniProt P11387); assay: Inhibition of recombinant human DNA topoisomerase-1 assessed as relaxation of supercoiled pBR322 DNA at 50 uM after 30 mins by agarose gel electrophoresis
T1 sequence (whole entry): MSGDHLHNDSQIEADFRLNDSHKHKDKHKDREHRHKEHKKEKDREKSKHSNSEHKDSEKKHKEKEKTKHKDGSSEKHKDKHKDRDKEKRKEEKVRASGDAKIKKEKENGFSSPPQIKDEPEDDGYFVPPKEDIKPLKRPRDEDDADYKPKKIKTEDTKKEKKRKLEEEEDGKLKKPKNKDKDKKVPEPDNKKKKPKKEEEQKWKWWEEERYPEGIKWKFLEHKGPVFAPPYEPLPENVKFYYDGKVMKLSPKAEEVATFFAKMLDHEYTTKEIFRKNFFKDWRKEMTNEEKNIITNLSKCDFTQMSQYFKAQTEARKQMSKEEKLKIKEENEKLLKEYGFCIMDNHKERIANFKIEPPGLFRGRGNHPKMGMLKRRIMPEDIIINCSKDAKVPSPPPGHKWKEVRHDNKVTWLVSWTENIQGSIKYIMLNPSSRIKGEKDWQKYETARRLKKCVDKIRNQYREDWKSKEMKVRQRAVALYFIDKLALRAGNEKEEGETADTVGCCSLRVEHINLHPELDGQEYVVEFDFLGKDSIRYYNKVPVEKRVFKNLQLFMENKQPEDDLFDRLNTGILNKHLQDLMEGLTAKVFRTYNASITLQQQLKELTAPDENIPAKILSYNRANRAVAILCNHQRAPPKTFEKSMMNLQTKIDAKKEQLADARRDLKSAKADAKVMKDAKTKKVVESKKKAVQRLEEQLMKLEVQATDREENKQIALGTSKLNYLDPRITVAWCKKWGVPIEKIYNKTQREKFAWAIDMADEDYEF

| SMILES | inhibition at 10 µM (HCT-116 [1]) [%] | inhibition at 10 µM (PC-3 [2]) [%] | inhibition at 10 µM (U-87 MG [3]) [%] | inhibition at 10 µM (HepG2 [4]) [%] | inhibition at 10 µM (SK-OV-3 [5]) [%] | IC50 (HCT-116 [6]) [µM] | IC50 (PC-3 [7]) [µM] | IC50 (HepG2 [8]) [µM] | IC50 (U-87 MG [9]) [µM] | IC50 (SK-OV-3 [10]) [µM] | inhibition [11] |
| --- | --- | --- | --- | --- | --- | --- | --- | --- | --- | --- | --- |
| O=C1c2ccccc2-c2nc3cc(F)ccc3nc21 | 22.7 | 2.65 | -13.2 | 50.5 | 9.6 |  |  |  |  |  |  |
| COc1ccc2[nH]c3c(c2c1)C(=O)c1ccccc1C3=O | 76.2 | 8.56 | 49 | 26.6 | 57.6 |  |  |  |  |  |  |
| O=C1c2ccccc2-c2nc3ccccc3nc21 | -1.83 | -8.39 | -14.5 | 53.2 | 10.1 |  |  |  |  |  |  |
| CN(C)CCCNC(=O)C1c2c(ccc(Br)c2O)-n2c(=O)c3ccccc3c(=O)n21 (stereo not given) | -5.7 | 6.4 | -2.5 | -7.99 | -4.1 |  |  |  |  |  |  |
| O=C(NCCCO)C1c2c(ccc(Br)c2O)-n2c(=O)c3ccccc3c(=O)n21 (stereo not given) | 5.4 | 5.3 | -4.7 | -8.92 | -4.25 |  |  |  |  |  |  |
| O=C1c2ccccc2-c2nc3cc4ccccc4cc3nc21 | 7.32 | 11.8 | -11.5 | 2.82 | -8.16 |  |  |  |  |  |  |
| CN(C)CCNC(=O)C1c2c(ccc(Br)c2O)-n2c(=O)c3ccccc3c(=O)n21 (stereo not given) | -5.8 | 14.3 | 0.1 | 3.89 | -6.16 |  |  |  |  |  |  |
| CCOC(=O)C1c2c(O)cccc2-n2c(=O)c3ccccc3c(=O)n21 (stereo not given) | 0.4 | 4.9 | 1.9 | 11.2 | -3.97 |  |  |  |  |  |  |
| O=C1c2ccccc2-c2nc3cc(C(F)(F)F)ccc3nc21 | 12.2 | -1.15 | -7.67 | 42.9 | -0.82 |  |  |  |  |  |  |
| O=C1c2ccccc2-c2nc3ccc(C(F)(F)F)cc3nc21 | 17.2 | 15.9 | -15.6 | 43.8 | 14.2 |  |  |  |  |  |  |
| O=C(NCCO)C1c2c(ccc(Br)c2O)-n2c(=O)c3ccccc3c(=O)n21 (stereo not given) | 3.7 | 6.5 | 0.4 | 15.1 | -4.34 |  |  |  |  |  |  |
| O=C1c2ccccc2-c2nc3cccnc3nc21 | 71.9 | 52.7 | 20.8 | 55.4 | 13.2 | 44.6 | 4.38 | 33.8 |  |  |  |
| CCOC(=O)C1c2c(ccc(Br)c2O)-n2c(=O)c3ccccc3c(=O)n21 (stereo not given) | 3.3 | 0.8 | 4.1 | 2.54 | -3.43 |  |  |  |  |  |  |
| CCOC(=O)C1C2=C(CCCC2=O)n2c(=O)c3ccccc3c(=O)n21 (stereo not given) | 3.5 | 11.1 | 1.5 | 12 | -4.89 |  |  |  |  |  |  |
| CN(C)CCCn1c2c(c3c4ccccc4c(O)cc31)C(=O)c1ccccc1C2=O | 91.2 | 59.6 | 86 | 88 | 77.4 | 0.996 | 0.612 | 1.97 | 0.325 | 0.783 | Active |
| O=C(NCCO)C1c2c(O)cccc2-n2c(=O)c3ccccc3c(=O)n21 (stereo not given) | -0.6 | 5 | -0.6 | -0.87 | -7.14 |  |  |  |  |  |  |
| CN(C)CCCNC(=O)C1c2c(O)cccc2-n2c(=O)c3ccccc3c(=O)n21 (stereo not given) | -4.5 | 11.1 | -4.7 | -8.92 | -4.01 |  |  |  |  |  |  |
| O=C(NCCCO)C1c2c(O)cccc2-n2c(=O)c3ccccc3c(=O)n21 (stereo not given) | -3.8 | 7.6 | 2.4 | -3.15 | -5.15 |  |  |  |  |  |  |
| CN(C)CCn1c2c(c3c4ccccc4c(O)cc31)C(=O)c1ccccc1C2=O | 92 | 66.5 | 78.8 | 88.2 | 82.4 | 0.706 | 0.389 | 0.844 | 0.169 | 1.01 | Active |
| CN(C)CCNC(=O)C1c2c(O)cccc2-n2c(=O)c3ccccc3c(=O)n21 (stereo not given) | -4.2 | 4 | 1.1 | -2.82 | -1.46 |  |  |  |  |  |  |
| O=C1c2ccccc2-c2nc3ncccc3nc21 | 1.49 | 36.2 | -23.3 | 15.2 | 2.89 |  |  |  |  |  |  |
| COc1ccc2nc3c(nc2c1)C(=O)c1ccccc1-3 | 8.68 | -4.44 | -14.4 | 14.7 | 8.07 |  |  |  |  |  |  |
| COc1ccc2nc3c(nc2c1)-c1ccccc1C3=O | 16.9 | -1.15 | -7.74 | 6.56 | -7.19 |  |  |  |  |  |  |
| Cc1ccc2nc3c(nc2c1)C(=O)c1ccccc1-3 | 6.32 | -8.92 | -13.9 | 6.44 | 11.2 |  |  |  |  |  |  |
